Assay results as given in ChEMBL document CHEMBL4765482, “Novel Sigma 1 Receptor Antagonists as Potential Therapeutics for Pain Management” (J Med Chem, 2021).

Experiments:
[1] = target: T1, Sigma non-opioid intracellular receptor 1 (Homo sapiens, UniProt Q99720); assay: Displacement of [3H]-pentazocine from sigma-1 receptor in human Jurkat cell membrane at 100 nM incubated for 2 hr by liquid scintillation counting method relative to control; assay type: cell membranes
[2] = target: T2, Sigma intracellular receptor 2 (Homo sapiens, UniProt Q5BJF2); assay: Displacement of [3H]-DTG from sigma-2 receptor in human Jurkat cell membrane incubated for 1 hr by liquid scintillation counting method; assay type: cell membranes
T2 sequence (Q5BJF2 whole entry): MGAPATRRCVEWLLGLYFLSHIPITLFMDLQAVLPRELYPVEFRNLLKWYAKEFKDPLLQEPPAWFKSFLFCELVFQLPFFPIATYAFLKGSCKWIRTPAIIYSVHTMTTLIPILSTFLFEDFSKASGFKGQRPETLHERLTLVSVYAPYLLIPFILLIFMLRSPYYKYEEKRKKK

[3] = Displacement of [3H]-DTG from sigma-2 receptor in guinea pig brain membrane incubated for 1 hr by liquid scintillation counting method; assay type: cell membranes, Cavia porcellus
[4] = Metabolic stability in rat liver microsomes assessed as half-life at 10 uM incubated for 1 hr in presence of NADPH by LC-MS/MS analysis; assay type: ADME, Microsome
[5] = Intrinsic clearance in rat liver microsomes at 10 uM incubated for 1 hr in presence of NADPH by LC-MS/MS analysis; assay type: ADME, Microsome; conditions: read-out: CLH
[6] = Metabolic stability in human liver microsomes assessed as half-life at 10 uM incubated for 1 hr in presence of NADPH by LC-MS/MS analysis; assay type: ADME, Microsome
[7] = Intrinsic clearance in human liver microsomes at 10 uM incubated for 1 hr in presence of NADPH by LC-MS/MS analysis; assay type: ADME, Microsome; conditions: read-out: CLH
[8] = target: T1, Sigma non-opioid intracellular receptor 1; assay: Displacement of [3H]-pentazocine from sigma-1 receptor in human Jurkat cell membrane incubated for 2 hr by liquid scintillation counting method; assay type: cell membranes
[9] = target: Sigma non-opioid intracellular receptor 1 (Cavia porcellus, UniProt Q60492); assay: Displacement of [3H]-(+)-pentazocine from sigma-1 receptor in guinea pig brain membranes incubated for 1 hr by liquid scintillation counting method; assay type: cell membranes, Membrane
Sequence of Sigma non-opioid intracellular receptor 1 (Cavia porcellus, UniProt Q60492) (Q60492 whole entry): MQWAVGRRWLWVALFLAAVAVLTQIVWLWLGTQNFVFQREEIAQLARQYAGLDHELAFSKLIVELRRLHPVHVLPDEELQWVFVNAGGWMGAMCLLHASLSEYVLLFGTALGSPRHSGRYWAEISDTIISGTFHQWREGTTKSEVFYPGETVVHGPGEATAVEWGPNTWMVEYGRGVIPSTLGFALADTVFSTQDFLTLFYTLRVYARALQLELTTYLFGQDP

[10] = target: T2, Sigma intracellular receptor 2; assay: Displacement of [3H]-DTG from sigma-2 receptor in human Jurkat cell membrane at 1000 nM incubated for 1 hr by liquid scintillation counting method relative to control; assay type: cell membranes; conditions: filed as antagonist

T1 sequence (Q99720 whole entry): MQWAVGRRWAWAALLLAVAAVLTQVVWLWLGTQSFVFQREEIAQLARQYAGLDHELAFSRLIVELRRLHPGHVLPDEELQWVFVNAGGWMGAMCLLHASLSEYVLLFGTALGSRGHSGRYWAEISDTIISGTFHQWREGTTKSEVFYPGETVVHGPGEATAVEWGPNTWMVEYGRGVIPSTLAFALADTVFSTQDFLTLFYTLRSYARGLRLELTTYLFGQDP

SMILES | Ki [2] | Ki [3] | Ki [8] | also measured
Cn1nc(CN2CCCC2)nc1-c1cccc(-c2ccccc2)c1 | 1000 nM | – | – | Activity ([1]; filed as antagonist): 40%
CN(Cc1nc(-c2ccc(C(C)(C)C)cc2)n(C)n1)CC1CC1 | – | 324 nM | – | half-life at 10 µM [4]: 3.5 min; microsomal CLint at 10 µM [5]: 196 µL/min/mg; half-life at 10 µM [6]: 61.3 min; microsomal CLint at 10 µM [7]: 11.3 µL/min/mg
CC(C)n1nc(CN2CCCC2)nc1-c1ccc(C(C)(C)C)cc1 | – | – | 2.2 nM | –
Cn1nc(CN2CCCC2)nc1-c1ccc(Cl)c(Cl)c1 | – | – | – | half-life at 10 µM [4]: 5.1 min; microsomal CLint at 10 µM [5]: 135 µL/min/mg; half-life at 10 µM [6]: 84.7 min; microsomal CLint at 10 µM [7]: 8.2 µL/min/mg
Cn1nc(CN2CCN(CCc3ccccc3)CC2)nc1-c1ccc(C(C)(C)C)cc1 | 17 nM | 14 nM | 49 nM | Ki [9]: 10 nM
Cn1nc(CN2CCCC2)nc1-c1ccc(C2CC2)cc1 | 1000 nM | – | – | Activity [1]: 30%
Cn1nc(CN2CCCC2)nc1-c1ccc2ccsc2c1 | > 1000 nM | – | 64 nM | –
Cn1nc(CN2CCCC2)nc1-c1ccc2c(c1)CCC2 | 1000 nM | – | – | Activity [1]: 37%
Cn1nc(CN2CCCC2)nc1-c1ccc(C(F)(F)F)cc1 | > 1000 nM | – | 82 nM | –
CC(C)c1ccc(-c2nc(CN3CCCC3)nn2C)cc1 | 1000 nM | – | 96 nM | –
Cn1nc(CN2CCCCC2)nc1-c1ccc(C(C)(C)C)cc1 | – | 441 nM | – | –
Cc1ccc(-c2nc(CN3CCCC3)nn2C)cc1C | > 1000 nM | – | – | Activity [1]: 28%
Cn1nc(CN2CCN(Cc3ccccc3)CC2)nc1-c1ccc(C(C)(C)C)cc1 | – | 39 nM | – | –
Cn1nc(CN2CCN(c3ccccc3)CC2)nc1-c1ccc(C(C)(C)C)cc1 | – | > 1000 nM | – | Ki [9]: 14 nM; half-life at 10 µM [4]: 23.3 min; microsomal CLint at 10 µM [5]: 29.8 µL/min/mg; half-life at 10 µM [6]: 37.3 min; microsomal CLint at 10 µM [7]: 18.6 µL/min/mg
O=C(CCCN1CCC(O)(c2ccc(Cl)cc2)CC1)c1ccc(F)cc1 [HALOPERIDOL] | – | 4.7 nM | – | –
Cn1nc(CN2CCCC2)nc1-c1cccc(Oc2ccccc2)c1 | > 1000 nM | – | – | Activity [1]: 21%
Cn1nc(CN2CCOCC2)nc1-c1ccc(C(C)(C)C)cc1 | – | > 1000 nM | – | –
Cn1nc(CN2CCCC2)nc1-c1ccc(-c2ccc(Cl)c(Cl)c2)c(Cl)c1 | – | – | – | Activity ([1]; filed as antagonist): 43%; Activity [10]: 79%
Cn1nc(CN2CCCC2)nc1-c1ccc(C2CCCCC2)cc1 | – | – | 20 nM | Activity [10]: 89%
